According to patent US9512084B2, “Amino pyrimidine derivatives” (Novartis AG, priority 2013, dated 2016):

Legend:
Btk = Btk (Rattus norvegicus, UniProt Q5S255); test: Inhibition of Btk activity in blood (in vitro B cell activation assay, CD86, rat whole blood); type: cell-based; conditions: Lewis rat whole blood diluted to 50%, anti-rat IgM + rat IL-4, 24 hours, CD86 on CD45RA positive B cells
Description: Alternatively, the inhibitory activity of the present compounds in blood was assessed in the following in vitro B cell activation assay. Whole blood was collected from the abdominal aorta of anaesthetized adult male Lewis rats and was anticoagulated with 100 U/ml sodium heparin. Blood was then diluted to 50% with high glucose DMEM (Amimed) supplemented with […] penicillin, […], 2 mM L-glutamin, 50 mg/ml dextran 40 and 5% FCS (Fetaclone I, Gibco). Then, 190 μl prediluted blood was mixed in 96 well U-bottomed microtiter plates (Nunc) with 10 μl of serial dilutions of test compounds in DMSO. […] Activation of B cells was measured by flow cytometry after staining for the B cell subset with PE-Cy5-labeled anti-ratCD45RA (Beckton-Dickinson) and for the activation marker CD86 (PE-labeled anti-rat CD86 (Beckton-Dickinson). All staining procedures were performed at RT for 30 min in the dark in 96-deep well V-bottomed microtiter plates (Corning) with BD Lysing Solution (Beckton-Dickinson).
Cytometric data was acquired on a FACScalibur flow cytometer (BD Biosciences) and the subpopulation of lymphocytes were gated according to size and granularity and further analyzed for expression of CD45RA and the activation markers. Data for the inhibition of B cell activation were calculated from the percentage of cells positively stained for activation markers within the CD45RA positive population.

[1] = target: full-length human recombinant BTK (Homo sapiens (Human), UniProt Q06187); test: Inhibition of Btk enzymatic activity (biochemical enzyme assay, Caliper); conditions: 6.4 nM enzyme solution, 164 μM ATP solution, 30° C., 60 minutes
Description: The inhibitory activity of the present compounds against Btk was assessed in a biochemical enzyme assay. […] The assay plates were prepared by addition of 50 nl per well of compound solution in 90% DMSO. […] Kinase reactions were analyzed on a Caliper LC3000 workstation by separating phosphorylated and unphosphorylated peptides and kinase activities were calculated from the amounts of newly formed phospho-peptide.

Sequence of Btk (Q5S255 1-660): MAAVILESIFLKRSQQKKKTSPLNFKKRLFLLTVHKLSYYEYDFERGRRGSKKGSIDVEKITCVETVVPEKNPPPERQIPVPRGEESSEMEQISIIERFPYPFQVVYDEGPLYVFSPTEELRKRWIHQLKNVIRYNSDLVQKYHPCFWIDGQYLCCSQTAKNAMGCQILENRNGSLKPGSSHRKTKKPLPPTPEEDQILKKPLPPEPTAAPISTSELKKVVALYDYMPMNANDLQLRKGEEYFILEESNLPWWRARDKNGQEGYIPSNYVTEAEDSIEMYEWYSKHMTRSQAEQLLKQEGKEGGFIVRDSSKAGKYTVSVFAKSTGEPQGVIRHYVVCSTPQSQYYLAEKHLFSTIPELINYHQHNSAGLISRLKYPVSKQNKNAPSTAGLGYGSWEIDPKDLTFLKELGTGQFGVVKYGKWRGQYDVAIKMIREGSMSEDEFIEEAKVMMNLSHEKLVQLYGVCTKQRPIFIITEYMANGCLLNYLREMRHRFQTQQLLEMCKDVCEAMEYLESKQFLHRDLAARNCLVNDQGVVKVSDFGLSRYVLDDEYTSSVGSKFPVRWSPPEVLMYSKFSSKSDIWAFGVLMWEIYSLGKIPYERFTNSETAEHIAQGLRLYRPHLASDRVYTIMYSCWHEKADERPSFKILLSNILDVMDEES
Sequence of full-length human recombinant BTK (Q06187 whole entry): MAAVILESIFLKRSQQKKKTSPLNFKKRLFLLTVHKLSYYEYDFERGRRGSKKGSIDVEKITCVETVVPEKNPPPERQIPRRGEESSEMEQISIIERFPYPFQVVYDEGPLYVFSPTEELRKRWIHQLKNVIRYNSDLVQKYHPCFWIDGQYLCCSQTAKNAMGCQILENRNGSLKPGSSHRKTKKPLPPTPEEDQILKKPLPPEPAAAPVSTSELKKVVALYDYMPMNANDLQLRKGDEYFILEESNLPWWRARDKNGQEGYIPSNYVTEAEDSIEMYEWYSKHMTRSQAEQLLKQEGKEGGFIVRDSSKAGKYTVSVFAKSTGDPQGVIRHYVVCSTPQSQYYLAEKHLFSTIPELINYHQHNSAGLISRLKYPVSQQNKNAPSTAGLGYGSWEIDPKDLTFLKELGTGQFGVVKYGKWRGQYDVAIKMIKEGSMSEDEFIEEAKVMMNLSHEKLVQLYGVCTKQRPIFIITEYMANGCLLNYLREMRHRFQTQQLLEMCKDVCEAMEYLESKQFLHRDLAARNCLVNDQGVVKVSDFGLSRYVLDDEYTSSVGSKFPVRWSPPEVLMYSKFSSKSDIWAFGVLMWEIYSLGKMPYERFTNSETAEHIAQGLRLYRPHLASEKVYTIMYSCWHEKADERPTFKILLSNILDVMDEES

IC50 (Btk) | IC50 [1] | SMILES
222 nM | 6 nM | CC#CC(=O)N1C[C@@H](OC)C[C@H]1COc1c(N)ncnc1-c1cc(F)cc(NC(=O)c2ccc(C3CC3)cc2F)c1C [Example 30, N-(3-(6-Amino-5-(((2S,4S)-1-(but-2-ynoyl)-4-methoxypyrrolidin-2-yl)methoxy)pyrimidin-4-yl)-5-fluoro-2-methylphenyl)-4-cyclopropyl-2-fluorobenzamide]
25 nM | 2 nM | C=CC(=O)N1C[C@H](F)C[C@H]1COc1c(N)ncnc1-c1cc(F)cc(NC(=O)c2ccc(C3CC3)cc2F)c1C [Example 31, N-(3-(5-(((2S,4R)-1-Acryloyl-4-fluoropyrrolidin-2-yl)methoxy)-6-aminopyrimidin-4-yl)-5-fluoro-2-methylphenyl)-4-cyclopropyl-2-fluorobenzamide]
55 nM | 4 nM | CC#CC(=O)N1C[C@H](F)C[C@H]1COc1c(N)ncnc1-c1cc(F)cc(NC(=O)c2ccc(C3CC3)cc2F)c1C [Example 32, N-(3-(6-Amino-5-(((2S,4R)-1-(but-2-ynoyl)-4-fluoropyrrolidin-2-yl)methoxy)pyrimidin-4-yl)-5-fluoro-2-methylphenyl)-4-cyclopropyl-2-fluorobenzamide]
72 nM | 2 nM | C=CC(=O)N1CC[C@H]1COc1c(N)ncnc1-c1cc(F)cc(N2CCc3cc(C4CC4)ccc3C2=O)c1CO [Example 35, (S)-2-(3-(5-((1-Acryloylazetidin-2-yl)methoxy)-6-aminopyrimidin-4-yl)-5-fluoro-2-(hydroxymethyl)phenyl)-6-cyclopropyl-3,4-dihydroisoquinolin-1(2H)-one]
968 nM | 32 nM | C=CC(=O)N1CCC[C@@H](COc2c(N)ncnc2-c2cc(F)cc(NC(=O)c3ccc(C4CC4)cc3F)c2C)C1 [Example 37, (R)—N-(3-(5-((1-Acryloylpiperidin-3-yl)methoxy)-6-aminopyrimidin-4-yl)-5-fluoro-2-methylphenyl)-4-cyclopropyl-2-fluorobenzamide]
176 nM | 1 nM | C=CC(=O)N1C[C@H](C#N)C[C@H]1COc1c(N)ncnc1-c1cc(F)cc(NC(=O)c2ccc(C3CC3)cc2F)c1C [Example 39, N-(3-(5-(((2S,4R)-1-Acryloyl-4-cyanopyrrolidin-2-yl)methoxy)-6-aminopyrimidin-4-yl)-5-fluoro-2-methylphenyl)-4-cyclopropyl-2-fluorobenzamide]
80 nM | 2 nM | C=CC(=O)N1C[C@@H](C#N)C[C@H]1COc1c(N)ncnc1-c1cc(F)cc(NC(=O)c2ccc(C3CC3)cc2F)c1C [Example 40, N-(3-(5-(((2S,4S)-1-Acryloyl-4-cyanopyrrolidin-2-yl)methoxy)-6-aminopyrimidin-4-yl)-5-fluoro-2-methylphenyl)-4-cyclopropyl-2-fluorobenzamide]

SMILES | IC50 (Btk) | IC50 [1]
C#CC(=O)N1CC[C@H]1COc1c(N)ncnc1-c1cc(F)cc(NC(=O)c2ccc(C3CC3)cc2F)c1C [Example 34, (S)—N-(3-(6-Amino-5-((1-propioloylazetidin-2-yl)methoxy)pyrimidin-4-yl)-5-fluoro-2-methylphenyl)-4-cyclopropyl-2-fluorobenzamide] | 208 nM | 2 nM
C=CC(=O)N1CC[C@H](OC)[C@H]1COc1c(N)ncnc1-c1cc(F)cc(NC(=O)c2ccc(C3CC3)cc2F)c1C [Example 38, N-(3-(5-(((2R,3S)-1-Acryloyl-3-methoxypyrrolidin-2-yl)methoxy)-6-aminopyrimidin-4-yl)-5-fluoro-2-methylphenyl)-4-cyclopropyl-2-fluorobenzamide] | 70 nM | 2 nM
